Laboratory results published in PubChem BioAssay (NCI).
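Cultured in 96-well plates, cells were exposed to test compound for 48 hours across five concentrations. GI50 is the concentration that inhibits growth by half. The concentration for full growth arrest is given as TGI.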 Peptide text beside a SMILES is read from it. * marks the point of attachment. OSu = O=C1CCC(=O)N1O*; OBn = c1ccc(CO*)cc1; Bn = c1ccc(C*)cc1

Experiments:
Experiment in all cases: NCI tumour cell line growth inhibition, 48 h
EKVX NSCLC = tested on: EKVX NSCLC
IGROV1 ovarian = tested on: IGROV1 ovarian
MDA-N = tested on: MDA-N
HT29 colon = tested on: HT29 colon
U251 CNS = tested on: U251 CNS
NCI/ADR-RES ovarian = tested on: NCI/ADR-RES ovarian
OVCAR-8 ovarian = tested on: OVCAR-8 ovarian
SR leukemia = tested on: SR leukemia
MDA-MB-231 breast = tested on: MDA-MB-231 breast
COLO 205 colon = tested on: COLO 205 colon

| Structure (SMILES) | TGI (EKVX NSCLC) | TGI (IGROV1 ovarian) | TGI (MDA-N) | TGI (HT29 colon) | TGI (U251 CNS) | TGI (NCI/ADR-RES ovarian) | TGI (OVCAR-8 ovarian) | TGI (SR leukemia) | TGI (MDA-MB-231 breast) | TGI (COLO 205 colon) | GI50 (EKVX NSCLC) | GI50 (IGROV1 ovarian) | GI50 (HT29 colon) | GI50 (COLO 205 colon) | GI50 (U251 CNS) | GI50 (NCI/ADR-RES ovarian) | GI50 (OVCAR-8 ovarian) | GI50 (SR leukemia) | GI50 (MDA-MB-231 breast) |
| --- | --- | --- | --- | --- | --- | --- | --- | --- | --- | --- | --- | --- | --- | --- | --- | --- | --- | --- | --- |
| Cc1ccc(C2(c3ccc(C)c(O)c3C)CCN(C)CC2)c(C)c1O | > 100 µM | > 100 µM | > 100 µM | > 100 µM | > 100 µM | > 100 µM | > 100 µM | > 100 µM | > 100 µM | – | – | – | – | – | – | – | – | – | – |
| O=C1NC(=S)NC(=O)C1=Cc1ccc2ccccc2n1 | > 100 µM | > 100 µM | – | > 100 µM | > 100 µM | – | > 100 µM | > 100 µM | – | > 100 µM | – | – | – | – | – | – | – | – | – |
| COc1ccc(N2C(=O)C3c4[nH]c5ccccc5c4C4CCC(C(C)(C)C)CC4C3C2=O)cc1OC (stereo not drawn) | > 100 µM | > 100 µM | – | > 100 µM | 73 µM | – | 33.9 µM | 39.9 µM | – | > 100 µM | – | – | – | – | – | – | – | – | – |
| c1ccc2nn(C3CCCCO3)nc2c1 (stereo not drawn) | > 100 µM | > 100 µM | > 100 µM | > 100 µM | > 100 µM | > 100 µM | > 100 µM | > 100 µM | > 100 µM | > 100 µM | – | – | – | – | – | – | – | – | – |
| COC1=C(OC)C(=O)C(Cc2c(Cl)nc3n2CCS3)=C(C)C1=O | 26.3 µM | 30.5 µM | 26.8 µM | 35.6 µM | 35.2 µM | 34.2 µM | 29.8 µM | 25.9 µM | 27.5 µM | 31.5 µM | – | – | – | – | – | – | – | – | – |
| O=C(CC(=O)Nc1ccccc1Cl)NNC(Sc1ccccc1)c1cc(N=Nc2ccc(Br)cc2)ccc1O (stereo not drawn) | > 10 µM | 5.53 µM | > 10 µM | > 10 µM | 8.26 µM | 5.61 µM | 2.39 µM | – | 8.68 µM | > 10 µM | – | – | – | – | – | – | – | – | – |
| COc1cnnc2c(C)c(-c3ccccc3)nn12 | > 100 µM | > 100 µM | > 100 µM | > 100 µM | > 100 µM | > 100 µM | > 100 µM | – | > 100 µM | > 100 µM | – | – | – | – | – | – | – | – | – |
| O=c1c(S(=O)(=O)Oc2ccccc2)coc2cc(F)ccc12 | > 100 µM | > 100 µM | > 100 µM | > 100 µM | > 100 µM | > 100 µM | > 100 µM | > 100 µM | > 100 µM | – | – | – | – | – | – | – | – | – | – |
| C/C(=N\NC(=O)N/N=C(\C)c1ccccn1)c1ccccn1 | > 100 µM | > 100 µM | > 100 µM | > 100 µM | > 100 µM | 93.6 µM | > 100 µM | > 100 µM | – | > 100 µM | – | – | – | – | – | – | – | – | – |
| O=C(NNCc1ccccc1O)c1ccccc1O | > 100 µM | > 100 µM | > 100 µM | > 100 µM | > 100 µM | 40.4 µM | > 100 µM | – | > 100 µM | > 100 µM | – | – | – | – | – | – | – | – | – |
| O=C(NC(CO)CO)c1ccc2cc(C(=O)N3CC(CCl)c4ccc([N+](=O)[O-])cc43)[nH]c2c1 (stereo not drawn) | > 100 µM | > 100 µM | > 100 µM | > 100 µM | > 100 µM | > 100 µM | > 100 µM | – | > 100 µM | > 100 µM | – | – | – | – | – | – | – | – | – |
| CCOC(=O)CCC(NC(=O)c1ccc(NCc2ccc3nc(-c4ccccc4)c(Cl)nc3c2)c2ccccc12)C(=O)OCC (stereo not drawn) | > 100 µM | – | > 100 µM | > 100 µM | > 100 µM | > 100 µM | > 100 µM | – | > 100 µM | > 100 µM | – | – | – | – | – | – | – | – | – |
| Clc1ccc(-c2nn3c(C45CC6CC(CC(C6)C4)C5)nnc3s2)cc1 | > 100 µM | > 100 µM | – | > 100 µM | > 100 µM | > 100 µM | – | > 100 µM | > 100 µM | > 100 µM | – | – | – | – | – | – | – | – | – |
| CC(C)(C)OC(=O)NCCNC(=O)CN(CC(=O)O)C1CCCCC1N(CC(=O)O)CC(=O)O (stereo not drawn) | – | > 100 µM | > 100 µM | > 100 µM | > 100 µM | > 100 µM | > 100 µM | > 100 µM | > 100 µM | > 100 µM | – | – | – | – | – | – | – | – | – |
| CC(CC(C)(C)[N+](C)(C)C)[N+](C)(C)C (stereo not drawn) | > 100 µM | > 100 µM | > 100 µM | > 100 µM | > 100 µM | > 100 µM | > 100 µM | > 100 µM | – | > 100 µM | – | – | – | – | – | – | – | – | – |
| COC1CCC(n2c([C@@H]3CCCC(=O)N3c3ccc(F)c(F)c3)nc3cc(-c4c(C)noc4C)ccc32)CC1 (stereo partly drawn) | > 100 µM | 25.4 µM | – | 25.2 µM | 23.8 µM | 30 µM | 40.8 µM | > 100 µM | 26 µM | 17.8 µM | 3.97 µM | 4.61 µM | 2.54 µM | 2.16 µM | 10.2 µM | 13.5 µM | 10.2 µM | 0.755 µM | 8.46 µM |
| CC(C)=CCC/C(C)=C/CC/C(C)=C/CSc1ccc(Cl)cc1C(=O)O | 37 µM | 34.8 µM | 60.3 µM | 37.4 µM | 34.7 µM | – | 42.1 µM | – | 63.4 µM | 51.6 µM | – | – | – | – | – | – | – | – | – |
| Cc1ccsc1/C=N/Nc1ccccn1 | 96.5 µM | > 100 µM | > 100 µM | > 100 µM | > 100 µM | > 100 µM | > 100 µM | – | > 100 µM | > 100 µM | – | – | – | – | – | – | – | – | – |
| CC(C)C[C@H](NC(=O)[C@H](CCc1ccccc1)NC(=O)c1ccc2ccccc2n1)B(O)O | 3.27 µM | 0.972 µM | – | 0.144 µM | 6.11 µM | 4.66 µM | 0.86 µM | – | 0.305 µM | 5.18 µM | – | – | – | – | – | – | – | – | – |
| CC(C)CC(NC(=O)C(N)CCC(=O)OCc1ccccc1)C(=O)NC(COCc1ccccc1)C(=O)NC(Cc1ccccc1)C(=O)ON1C(=O)CCC1=O (stereo not drawn) (H-E(OBn)LS(Bn)F-OSu; configuration not given here) | > 100 µM | 72.6 µM | 47.6 µM | > 100 µM | 68.5 µM | 85.3 µM | > 100 µM | 85.4 µM | 40 µM | – | – | – | – | – | – | – | – | – | – |
| CCOC(=O)/C=C1/Nc2cc(F)c(F)cc2NC1=O | > 100 µM | – | > 100 µM | > 100 µM | > 100 µM | > 100 µM | > 100 µM | – | > 100 µM | > 100 µM | – | – | – | – | – | – | – | – | – |
| O=Cc1cc(O)c(O)c(/C=N/n2c3ccccc3c3ccccc32)c1 | 43.5 µM | – | – | 48.1 µM | 45.5 µM | – | 18.7 µM | 21.4 µM | 30.2 µM | 26.3 µM | – | – | – | – | – | – | – | – | – |
